Assay results reported in patent US20230292755A1, “USE OF A GLYCINE BETAINE DERIVATIVE AS A PEDICULICIDAL AGENT” (priority 2020, published 2023).

Test system: lice (Pediculus humanus capitis)
Assay: Efficacy test: aqueous solutions sprayed into boxes of lice, percentage of mortality evaluated (ECHA guidance)
Format: in vivo
Settings: sprayed aqueous solution at 3% by weight of dry matter; for Mortality rate (%): mean of 4 boxes of 25 lice
Description: The surfactant compositions prepared as described in examples 1 and 2 above were tested following the recommendations of the ECHA relating to the evaluation of the efficacy of biocidal products (Guidance on the Biocidal Products Regulation Volume II Efficacy—Assessment and Evaluation (Parts B+C), Version 3.0 April 2018).
These compositions were thus each sprayed, in the form of aqueous solutions at 3% by weight of dry matter, into 4 boxes each including 25 lice (Pediculus humanus capitis), then the percentage of mortality was evaluated after 5, 10 and 15 min. The mean of the results obtained in the 4 boxes was calculated.
The test presented in example 3 was reproduced using one and the same concentration of different cationic surfactants instead of the glycine betaine derivatives according to the invention.

Question: Benzalkonium chloride was tested. Which “Mortality rate (%)” value (after 5 min) did it give?
Answer: The value was 70%.

Question: What about the “Mortality rate (%)” value (after 10 min) of the same molecule?
Answer: The value was 80%.

Question: What about the “Mortality rate (%)” value (after 15 min) of the same molecule?
Answer: Its value is 82%.

Question: What about the “time required to eliminate 100% of the lice” value of the same molecule?
Answer: Its value is 60 min.

Question: What does the source list for `CCCCCCCCCCCCCCCC[N+](C)(C)C.[Cl-]` [Cetrimonium chloride]?
Answer: Mortality rate (%) (after 5 min): 79%; Mortality rate (%) (after 10 min): 94%; Mortality rate (%) (after 15 min): 100%

Question: With `CCCCCCCCCCCC[N+](C)(C)C.[Cl-]` [Dodecyltrimethylammonium chloride] as the molecule, how does the “Mortality rate (%)” value (after 5 min) read?
Answer: The value was 49%.

Question: What about the “Mortality rate (%)” value (after 10 min) of the same molecule?
Answer: The value was 78%.

Question: What about the “Mortality rate (%)” value (after 15 min) of the same molecule?
Answer: Its value is 91%.

Question: And the “time required to eliminate 100% of the lice” value?
Answer: The value was 30 min.
